From the supplement of paper PMC10307832

Columns and labels:
Test in all cases: relative viability (nuclei count vs DMSO), 5 days (fraction); higher = more cells survive
[1] = test system: NCI-H3122
How it was run: (§1)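 Lung cancer cell lines in 1536-well plates were dosed by pin tool the day after seeding, either with one drug alone or with a fixed anchor-drug dose plus five library-drug doses (not always all listed) in √10 steps. After 5 days, cells were fixed and their nuclei stained in one step (final 0.05% Triton X-100, 1% formaldehyde, 1 ug/ml Hoechst), then counted on 4× images. Relative viability is the nuclei count in treated wells divided by that in vehicle wells. Values are medians of duplicate plates.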

[2] = test system: NCI-H2170
How it was run: as §1

[3] = test system: LXF-289
How it was run: as §1

[4] = test system: PC-3 [JPC-3]
How it was run: as §1

[5] = test system: NCI-H727
How it was run: as §1

[6] = test system: EMC-BAC-2
How it was run: as §1

[7] = test system: NCI-H1993
How it was run: as §1

[8] = test system: NCI-H2228
How it was run: as §1

[9] = test system: NCI-H1944
How it was run: as §1

[10] = test system: A-427
How it was run: as §1

[11] = test system: HOP-62
How it was run: as §1

[12] = test system: NCI-H2009
How it was run: as §1

[13] = test system: NCI-H596
How it was run: as §1

[14] = test system: LK-2
How it was run: as §1

[15] = test system: NCI-H322M
How it was run: as §1

[16] = test system: SK-MES-1
How it was run: as §1

[17] = test system: HARA
How it was run: as §1

[18] = test system: SW 1573
How it was run: as §1

[19] = test system: NCI-H1792
How it was run: as §1

Nc1ccn([C@@H]2O[C@H](CO)[C@@H](O)[C@@H]2O)c(=O)n1 [Cytarabine] + CC1(C)CCC(c2ccc(Cl)cc2)=C(CN2CCN(c3ccc(C(=O)NS(=O)(=O)c4ccc(N[C@H](CCN5CCOCC5)CSc5ccccc5)c(S(=O)(=O)C(F)(F)F)c4)cc3)CC2)C1 [Navitoclax] (partner 0.5 µM)
relative viability ([1]; first compound 0.005 µM): 0.968 | relative viability ([1]; first compound 0.01581 µM): 0.877 | relative viability ([1]; first compound 0.05 µM): 0.876 | relative viability ([1]; first compound 0.1581 µM): 0.682 | relative viability ([1]; first compound 0.5 µM): 0.457 | relative viability ([2]; first compound 0.01581 µM): 0.448 | relative viability ([2]; first compound 0.05 µM): 0.361 | relative viability ([2]; first compound 0.1581 µM): 0.28 | relative viability ([2]; first compound 0.5 µM): 0.263 | relative viability ([3]; first compound 0.005 µM): 0.805 | relative viability ([3]; first compound 0.01581 µM): 0.944 | relative viability ([3]; first compound 0.05 µM): 0.564 | relative viability ([3]; first compound 0.1581 µM): 0.395 | relative viability ([3]; first compound 0.5 µM): 0.253 | relative viability ([4]; first compound 0.005 µM): 0.753 | relative viability ([4]; first compound 0.01581 µM): 0.774 | relative viability ([4]; first compound 0.05 µM): 0.7 | relative viability ([4]; first compound 0.1581 µM): 0.605 | relative viability ([4]; first compound 0.5 µM): 0.556 | relative viability ([5]; first compound 0.005 µM): 0.372 | relative viability ([5]; first compound 0.01581 µM): 0.295 | relative viability ([5]; first compound 0.05 µM): 0.238 | relative viability ([5]; first compound 0.1581 µM): 0.181 | relative viability ([5]; first compound 0.5 µM): 0.182 | relative viability ([6]; first compound 0.005 µM): 0.843 | relative viability ([6]; first compound 0.01581 µM): 0.987 | relative viability ([6]; first compound 0.05 µM): 0.789 | relative viability ([6]; first compound 0.1581 µM): 0.243 | relative viability ([6]; first compound 0.5 µM): 0.19 | relative viability ([7]; first compound 0.005 µM): 0.92 | relative viability ([7]; first compound 0.01581 µM): 0.949 | relative viability ([7]; first compound 0.05 µM): 0.721 | relative viability ([7]; first compound 0.1581 µM): 0.548 | relative viability ([7]; first compound 0.5 µM): 0.624 | relative viability ([8]; first compound 0.005 µM): 0.504 | relative viability ([8]; first compound 0.01581 µM): 0.544 | relative viability ([8]; first compound 0.05 µM): 0.0741 | relative viability ([8]; first compound 0.1581 µM): 0.0929 | relative viability ([8]; first compound 0.5 µM): 0.0928 | relative viability ([9]; first compound 0.005 µM): 0.605 | relative viability ([9]; first compound 0.01581 µM): 0.363 | relative viability ([9]; first compound 0.05 µM): 0.268 | relative viability ([9]; first compound 0.1581 µM): 0.198 | relative viability ([9]; first compound 0.5 µM): 0.201 | relative viability ([10]; first compound 0.005 µM): 0.813 | relative viability ([10]; first compound 0.01581 µM): 0.496 | relative viability ([10]; first compound 0.05 µM): 0.257 | relative viability ([10]; first compound 0.1581 µM): 0.154 | relative viability ([10]; first compound 0.5 µM): 0.16 | relative viability ([11]; first compound 0.005 µM): 0.946 | relative viability ([11]; first compound 0.01581 µM): 0.405 | relative viability ([11]; first compound 0.05 µM): 0.342 | relative viability ([11]; first compound 0.1581 µM): 0.104 | relative viability ([11]; first compound 0.5 µM): 0.0809 | relative viability ([12]; first compound 0.005 µM): 1.13 | relative viability ([12]; first compound 0.01581 µM): 1.21 | relative viability ([12]; first compound 0.05 µM): 0.99 | relative viability ([12]; first compound 0.1581 µM): 0.898 | relative viability ([12]; first compound 0.5 µM): 0.31 | relative viability ([13]; first compound 0.005 µM): 0.874 | relative viability ([13]; first compound 0.01581 µM): 0.894 | relative viability ([13]; first compound 0.05 µM): 0.611 | relative viability ([13]; first compound 0.1581 µM): 0.558 | relative viability ([13]; first compound 0.5 µM): 0.413 | relative viability ([14]; first compound 0.005 µM): 0.527 | relative viability ([14]; first compound 0.01581 µM): 0.425 | relative viability ([14]; first compound 0.05 µM): 0.316 | relative viability ([14]; first compound 0.1581 µM): 0.191 | relative viability ([14]; first compound 0.5 µM): 0.194 | relative viability ([15]; first compound 0.005 µM): 0.846 | relative viability ([15]; first compound 0.01581 µM): 0.787 | relative viability ([15]; first compound 0.05 µM): 0.561 | relative viability ([15]; first compound 0.1581 µM): 0.46 | relative viability ([15]; first compound 0.5 µM): 0.366 | relative viability ([16]; first compound 0.005 µM): 0.957 | relative viability ([16]; first compound 0.01581 µM): 0.869 | relative viability ([16]; first compound 0.05 µM): 0.408 | relative viability ([16]; first compound 0.1581 µM): 0.22 | relative viability ([16]; first compound 0.5 µM): 0.178 | relative viability ([17]; first compound 0.005 µM): 1.09 | relative viability ([17]; first compound 0.01581 µM): 0.593 | relative viability ([17]; first compound 0.05 µM): 0.302 | relative viability ([17]; first compound 0.1581 µM): 0.178 | relative viability ([17]; first compound 0.5 µM): 0.131 | relative viability ([18]; first compound 0.005 µM): 0.979 | relative viability ([18]; first compound 0.01581 µM): 0.79 | relative viability ([18]; first compound 0.05 µM): 0.556 | relative viability ([18]; first compound 0.1581 µM): 0.223 | relative viability ([18]; first compound 0.5 µM): 0.103 | relative viability ([19]; first compound 0.005 µM): 0.339 | relative viability ([19]; first compound 0.01581 µM): 0.55 | relative viability ([19]; first compound 0.05 µM): 0.223 | relative viability ([19]; first compound 0.1581 µM): 0.304 | relative viability ([19]; first compound 0.5 µM): 0.246
